Experimental data published in ChEMBL document CHEMBL3352712, “Structural modifications of coumarin derivatives: Determination of antioxidant and lipoxygenase (LOX) inhibitory activity” (Bioorg Med Chem, 2014).

Experiments:
[1] = Antioxidant activity assessed as inhibition of AAPH-induced linoleic acid lipid peroxidation at 100 uM; format: physicochemical
Lipoxygenase = Lipoxygenase (Glycine max, UniProt Q39829); assay: Inhibition of soybean LOX assessed as reduction in conversion of sodium linoleate to 13-hydroperoxylinoleic acid by UV spectroscopy
[2] = Antioxidant activity assessed as DPPH radical scavenging activity at 100 uM after 60 mins by spectrophotometry; format: physicochemical; conditions: 1 h
[3] = Antioxidant activity assessed as DPPH radical scavenging activity at 100 uM after 20 mins by spectrophotometry; format: physicochemical
[4] = biological target: Lipoxygenase (Glycine max) (UniProt Q39829); assay: Inhibition of soybean LOX assessed as reduction in conversion of sodium linoleate to 13-hydroperoxylinoleic acid at 100 uM by UV spectroscopy

inhibition (INH) [1] [%]	IC50 (Lipoxygenase; read-out: IC50) [µM]	inhibition (INH) [2] [%]	inhibition (INH) [3]	inhibition [4] [%]	IC50 (Lipoxygenase)	SMILES
100	37	9	Not Active	–	–	CC(C)=CCOc1ccc(-c2c(C)c3cc(Br)cc(Br)c3oc2=O)cc1OCC=C(C)C
63	–	–	–	–	–	Cc1c(C)c2c(c(C)c1O)CCC(C)(C(=O)O)O2 (configuration not stated) [TROLOX]
92	75	68	67%	–	–	CC(C)=CCOc1ccc(-c2c(C)c3cc(Br)ccc3oc2=O)cc1OCC=C(C)C
–	51	83	84%	–	–	CC(Cc1ccc(O)c(O)c1)C(C)Cc1ccc(O)c(O)c1 (configuration not stated) [NORDIHYDROGUAIARETIC ACID]
75	–	78	76%	7	–	Cc1c(-c2ccc(O)c(O)c2)c(=O)oc2c(Br)cc(Br)cc12
75	75	62	77%	–	–	Cc1c(-c2ccc(O)c(O)c2)c(=O)oc2ccc(Br)cc12
96	65	21	26%	–	–	COc1ccc(-c2c(C)c3cc(Br)ccc3oc2=S)cc1OC
47	–	85	84%	–	Not Active	COc1ccc(-c2c(C)c3ccccc3o/c2=N/Nc2ccccc2)cc1
26	–	80	78%	26	–	O=c1oc2ccc(Br)cc2cc1-c1ccc(O)c(O)c1
64	–	68	11%	1	–	COc1ccc(-c2c(C)c3cc(-c4ccc(C=O)cc4)ccc3oc2=O)cc1OC
58	–	2	13%	–	–	COc1ccc(-c2c(C)c3cc(Br)cc(Br)c3oc2=O)cc1OC
50	–	9	Not Active	–	Not Active	COc1ccc(-c2c(C)c3cc(Cl)ccc3oc2=S)cc1OC
56	81	12	11%	–	–	COc1ccc(-c2cc3cc(Br)ccc3oc2=O)cc1OC
11	–	11	14%	35	–	COc1ccc(-c2c(C)c3ccccc3oc2=S)cc1
7	–	7	17%	44	–	COc1ccc(-c2ccc3oc(=O)c(-c4ccc(OC)c(OC)c4)c(C)c3c2)cc1
55	–	86	85%	28	–	COc1ccc(-c2c(C)c3cc(Br)ccc3o/c2=N/Nc2ccccc2)cc1OC
59	90	35	41%	–	–	Cc1c(-c2ccc(O)c(O)c2)c(=S)oc2ccc(Br)cc12
99	40	5	Not Active	–	–	CC(C)=CCOc1ccc(-c2cc3cc(Br)ccc3oc2=O)cc1OCC=C(C)C
